Key:
Demodex [1] = assay: Ex vivo treatment of Demodex on epilated lashes, kill time; conditions: lashes immersed in 1-2 drops, time to cessation of all movement for minimum 60 seconds, examined every four hours
Method: Epilated lashes from an individual with confirmed Demodex infection were mounted onto six slides and covered with a coverslip. The lashes were then immersed in 1-2 drops of treatment solution (50 mg/mL 5-FU, 5 mg/mL 5-FU, or balanced salt solution as a control (2 slides each)). The slides were examined under a microscope (at magnifications ranging from 20-40×) every four hours. The kill time was defined as the elapsed time between the addition of test solution and all cessation of movement of the body, legs, mouth and pedipalps for a minimum of 60 seconds. The kill time for Demodex-infested lashes immersed in 5 mg/mL of 5-FU, 50 mg/mL of 5-FU, and control were 32 hours, 44 hours, and 72 hours, respectively.

Demodex [2] = assay: Clinical treatment of Demodex blepharitis with topical 5-FU 1%; format: in vivo, human
Method: The diagnosis of ocular demodicosis was based on clinical examination and confirmed by lash sampling and identification of microscopic mites. Lashes with cylindrical dandruff (CD), (scales that form clear cuffs collaring the lash root) were specifically selected for epilation. External slit lamp photos of both eyes of each individual were taken prior to and after initiation of 5-FU treatment. […] Patients were treated with 5-FU in a cyclical fashion (one week of topical 5-FU 1% application 4 times per day in the affected eye(s) followed by a 3-week holiday comprised one cycle).

Demodex [3] = assay: Clinical treatment of Demodex infestation with topical mitomycin C; format: in vivo, human; conditions: patient with conjunctival melanoma and heavy Demodex infestation, after 2 cycles

| SMILES | kill time (Demodex [1]; 5 mg/mL 5-FU) [h] | kill time (Demodex [1]; 50 mg/mL 5-FU) [h] | CDs (cylindrical dandruff) and inflammation (Demodex [2]; one individual with bilateral 5-FU treatment, both eyes compared to pre-treatment) | collarettes and lid inflammation by clinical examination (Demodex [2]; topical 5-FU 1% 4 times per day one week, 3-week holiday per cycle, at least 2 cycles, treated eyes compared to untreated eye) | lash collarettes (Demodex [3]) |
| --- | --- | --- | --- | --- | --- |
| O=c1[nH]cc(F)c(=O)[nH]1 [5-FU, 5-fluorouracil] | 32 | 44 | reduction in CDs and inflammation | reduction in collarettes and lid inflammation | – |
| CO[C@@]12[C@H](COC(N)=O)C3=C(C(=O)C(C)=C(N)C3=O)N1C[C@@H]1N[C@@H]12 [mitomycin C] | – | – | – | – | dramatic reduction in lash collarettes |

From patent publication US20240238292A1, “TREATMENT OF INFECTIONS IN AND AROUND THE EYE” (UNIVERSITY OF MIAMI, priority 2021, published 2024)
